In PMC8652888, “Angiogenesis, Anti-Tumor, and Anti-Metastatic Activity of Novel α-Substituted Hetero-Aromatic Chalcone Hybrids as Inhibitors of Microtubule Polymerization” (Frontiers in Chemistry, 2021):

Tested on: MCF-7 cells
Assay: Transwell Matrigel invasion assay
Assay type: cell-based, human
Description: In order to evaluate whether 7m could suppress migration and invasion, the MCF-7 cell culture was performed by wound healing and Transwell Matrigel assay, respectively.
The upper chamber of the Transwell chamber was filled with cells resuspended in serum-free medium, 6 × 10^4 cells per well, 100 μl per well, and the lower chamber was added with 10% FBS-containing medium prepared with different concentrations of 7m. The cells were allowed to migrate for 48 h at 37°C in an atmosphere of 5% CO2. Then the migration of cells to the underside of the filter was determined by crystal violet staining.

## 3-(benzofuran-6-yl)-2-methyl-1-(3,4,5-trimethoxyphenyl)prop-2-en-1-one [Compound 7m]
  MCF-7 cells invasion: hinder the MCF-7 cells invasion in a dose-dependent manner
